We go through 30 compounds from US7851474B2, “Dipiperazinyl ketones and related analogues” (Neurogen Corporation, priority 2005, dated 2010).

The assay concerns the target T1, chimeric human H3 receptor (Homo sapiens, UniProt Q9Y5N1, E19D).
T1 construct: made in house; host or cells: Sf9 insect cells (baculovirus infection); P2 membrane preparation
As to the kind of experiment: Chimeric human H3 receptor GTP binding assay (agonist-stimulated GTP-gamma35S binding, Example 7). It is filed as biochemical. The note with it: read-out: Ki. The source says:
This Example illustrates a representative assay for evaluating agonist-stimulated GTP-gamma^35S binding (“GTP binding”) activity. […] This agonist-stimulated GTP binding activity can also be used to detect partial agonism mediated by antagonist compounds. A compound analyzed in this assay is referred to herein as a “test compound.”
Four independent baculoviral stocks (one directing the expression of the chimeric human H3 receptor and three directing the expression of each of the three subunits of a heterotrimeric G-protein) are used to infect a culture of Sf9 cells as described above. P2 membranes are prepared as described above, and agonist-stimulated GTP binding on the P2 membranes is assessed using histamine (Sigma Chemical Co., St. Louis, Mo.) as agonist in order to ascertain that the receptor/G-protein-alpha-beta-gamma combination(s) yield a functional response as measured by GTP binding. P2 membranes are resuspended by Dounce homogenization (tight pestle) in GTP binding assay buffer (50 mM Tris pH 7.4, 120 mM NaCl, 5 mM MgCl2, 2 mM EGTA, 1 mg/ml BSA, 0.2 mg/ml bacitracin, 0.02 mg/ml aprotinin, 0.01 mg/ml saponin, 10 μM GDP) and added to assay tubes at a concentration of 35 μg protein/reaction tube. […] In competition experiments, non-radiolabeled test compounds are added to separate reactions at concentrations ranging from 10^−10 M to 10^−6 M along with 1 μM histamine to yield a final volume of 0.20 ml.
Neutral antagonists are antagonists that are substantially free of inherent agonist activity, and include those test compounds that reduce the histamine-stimulated GTP binding activity towards, but not below, baseline levels. In contrast, in the absence of added histamine, inverse agonists reduce the GTP binding activity of the receptor-containing membranes below baseline.
After a 60-min incubation at room temperature, reactions are terminated by vacuum filtration over WHATMAN GF/C filters (pre-soaked in wash buffer, 0.1% BSA) followed by washing with ice-cold wash buffer (50 mM Tris pH 7.4, 120 mM NaCl). The amount of receptor-bound (and thereby membrane-bound) GTP-gamma^35S is determined by measuring the filter-bound radioactivity, preferably by liquid scintillation spectrometry of the washed filters. […] Data is expressed as percent above basal (baseline). The results of GTP binding experiments are analyzed using SIGMAPLOT software (SPSS Inc., Chicago, Ill.).
IC50 values are calculated by non-linear regression analysis of dose-response curves using Kaleidograph (Synergy Software, Reading, Pa.).
On the technique in general: GTPγS is a poorly hydrolysed GTP analogue; its binding reports G protein activation.

The mark [1] stands for this setting: Table II, assay of Example 7, "*" in Ki.
[2] abbreviates: assay of Example 7, symbol * in column headed Ki of Table II.
Where [3] appears, read: Table II "Ki", symbol "*": Ki in the assay of Example 7.
Where [4] appears, read: assay of Example 7, "*" in Ki of Table II.
[5] abbreviates: Table II, "*" in Ki, assay of Example 7.

pKi: −log10 of the molar value. Like-named read-outs stand apart in the source and are kept apart here. Bounds are passed on as bounds.

What is called pKi is the negative decadic logarithm of the Ki, by convention in mol/L.

T1 sequence (Q9Y5N1 with tags, fused parts or gaps E19D): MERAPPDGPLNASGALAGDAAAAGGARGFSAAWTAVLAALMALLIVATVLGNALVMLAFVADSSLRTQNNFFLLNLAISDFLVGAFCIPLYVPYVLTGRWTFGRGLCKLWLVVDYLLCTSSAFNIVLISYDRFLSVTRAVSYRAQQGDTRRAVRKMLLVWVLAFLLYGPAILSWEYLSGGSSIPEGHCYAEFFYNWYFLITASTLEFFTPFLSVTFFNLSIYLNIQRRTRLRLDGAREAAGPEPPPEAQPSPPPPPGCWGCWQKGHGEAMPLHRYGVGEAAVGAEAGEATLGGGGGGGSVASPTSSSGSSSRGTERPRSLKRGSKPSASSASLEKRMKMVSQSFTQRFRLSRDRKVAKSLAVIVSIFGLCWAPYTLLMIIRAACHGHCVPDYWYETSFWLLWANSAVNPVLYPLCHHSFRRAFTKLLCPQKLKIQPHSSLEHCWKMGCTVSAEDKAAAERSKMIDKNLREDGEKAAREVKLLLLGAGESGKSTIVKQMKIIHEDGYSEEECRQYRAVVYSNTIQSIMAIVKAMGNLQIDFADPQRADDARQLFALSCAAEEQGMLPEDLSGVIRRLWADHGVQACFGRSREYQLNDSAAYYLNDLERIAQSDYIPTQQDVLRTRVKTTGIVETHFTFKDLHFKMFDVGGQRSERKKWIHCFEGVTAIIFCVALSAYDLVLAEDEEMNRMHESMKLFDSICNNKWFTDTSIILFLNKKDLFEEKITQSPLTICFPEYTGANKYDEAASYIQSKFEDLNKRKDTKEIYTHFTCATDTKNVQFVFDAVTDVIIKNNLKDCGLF

For the compound `O=C(CN1CCN(c2ccc(Cl)c(C(F)(F)F)c2)CC1)N1CCN(C2CCC2)CC1` [Compound 464, 1-[4-chloro-3-(trifluoromethyl)phenyl]-4-[2-(4-cyclobutylpiperazin-1-yl)-2-oxoethyl]piperazine], the pKi ("*" in Ki of Table II, assay of Example 7) was greater than 6.00.
With `Cc1cccc(C)c1-c1ccc(N2CCN(CC(=O)N3CCN(C4CCC4)CC3)CC2)nn1` [Compound 1059, 3-{4-[2-(4-cyclobutylpiperazin-1-yl)-2-oxoethyl]piperazin-1-yl}-6-(2,6-dimethylphenyl) pyridazine], the pKi under setting [1] is greater than 6.00.
Turning to `CCN1CCN(C(=O)CN2CCN(c3ccc(Br)c(OC)c3)CC2)CC1` [Compound 335, 1-(4-bromo-3-methoxyphenyl)-4-[2-(4-ethylpiperazin-1-yl)-2-oxoethyl]piperazine], the pKi under setting [2] was greater than 6.00.
In the case of `CCC(C)N1CCN(C(=O)CN2CCN(c3ccc(F)cc3F)CC2)CC1` (stereo not drawn) [Compound 861, 1-sec-butyl-4-{[4-(2,4-difluorophenyl)piperazin-1-yl]acetyl}piperazine], under setting [3], the pKi is greater than 6.00.
As to `O=C(NCC(F)(F)F)c1ccc(N2CCN(CC(=O)N3CCN(C4CCC4)CC3)CC2)nc1` [Compound 1180, 6-{4-[2-(4-cyclobutylpiperazin-1-yl)-2-oxoethyl]piperazin-1-yl}-N-(2,2,2-trifluoroethyl) nicotinamide], the pKi under setting [4] was greater than 6.00.
Take `COc1ccc(N2CCN(CC(=O)N3CCN(C4CCC4)CC3)CC2)nn1` [Compound 999, 3-{4-[2-(4-cyclobutylpiperazin-1-yl)-2-oxoethyl]piperazin-1-yl}-6-methoxypyridazine]: the negative-log Ki (pKi) under setting [1] is greater than 6.00.
Still for that read-out and setting: the value for `O=C(CN1CCC2(CC1)c1ccccc1C(=O)N2Cc1ccccc1)N1CCN(C2CCC2)CC1` [Compound 981, 2-benzyl-1′-[2-(4-cyclobutylpiperazin-1-yl)-2-oxoethyl]spiro[isoindole-1,4′-piperidin]-3(2H)-one] was greater than 6.00; that for `CCC(C)CNC(=O)c1ccc(N2CCN(CC(=O)N3CCN(C4CCC4)CC3)CC2)cc1` (stereo not drawn) [Compound 1131, 4-{4-[2-(4-cyclobutylpiperazin-1-yl)-2-oxoethyl]piperazin-1-yl}-N-(2-methylbutyl)benzamide] was greater than 6.00.
Take `O=C(CN1CCN(c2ccc(C(=O)N3CCSCC3)cc2)CC1)N1CCN(C2CCC2)CC1` [Compound 1094, 4-(4-{4-[2-(4-cyclobutylpiperazin-1-yl)-2-oxoethyl]piperazin-1-yl}benzoyl) thiomorpholine]: under setting [1], the pKi was greater than 6.00.
The same measure, in the same setting: the value for `CCN(C(=O)c1ccc(N2CCN(CC(=O)N3CCN(C4CCC4)CC3)CC2)cc1)C(C)C` [Compound 1126, 4-{4-[2-(4-cyclobutylpiperazin-1-yl)-2-oxoethyl]piperazin-1-yl}-N-ethyl-N-isopropylbenzamide] was greater than 6.00.
Take `COc1cccc(CN2C(=O)c3cccnc3C23CCN(CC(=O)N2CCN(C4CCC4)CC2)CC3)c1` [Compound 430, 1-[2-(4-cyclobutylpiperazin-1-yl)-2-oxoethyl]-6′-(3-methoxybenzyl) spiro[piperidine-4,7-pyrrolo[3,4-b]pyridin]-5′(6′H)-one]: the pKi under setting [2] was greater than 6.00.
Turning to `CN(C(=O)c1ccc(N2CCN(CC(=O)N3CCN(C4CCC4)CC3)CC2)nc1)C1CCCCC1` [Compound 1170, 6-{4-[2-(4-cyclobutylpiperazin-1-yl)-2-oxoethyl]piperazin-1-yl}-N-cyclohexyl-N-methylnicotinamide], the pKi under setting [4] is greater than 6.00.
As for `O=C(CN1CCN(c2cnc(-c3ccccc3Oc3ccccc3)cn2)CC1)N1CCN(C2CCC2)CC1` [Compound 959, 2-{4-[2-(4-cyclobutylpiperazin-1-yl)-2-oxoethyl]piperazin-1-yl}-5-(2-phenoxyphenyl)pyrazine], the pKi under setting [1] is greater than 6.00.
On the same count and under the same terms, the value for `COc1cc(F)c(-c2cnc(N3CCN(CC(=O)N4CCN(C5CCC5)CC4)CC3)cn2)cc1F` [Compound 940, 2-{4-[2-(4-cyclobutylpiperazin-1-yl)-2-oxoethyl]piperazin-1-yl}-5-(2,5-difluoro-4-methoxyphenyl)pyrazine] was greater than 6.00.
For the compound `Cc1nc(-c2ccc(N3CCN(CC(=O)N4CCN(C5CCC5)CC4)CC3)cc2)no1` [Compound 595, 1-cyclobutyl-4-({4-[4-(5-methyl-1,2,4-oxadiazol-3-yl)phenyl]piperazin-1-yl}acetyl)piperazine], the pKi under setting [5] was greater than 6.00.
On to `COc1ccc(N2CCN(CC(=O)N3CCN(C4CCCC4)CC3)CC2)cc1` [Compound 839, 1-cyclopentyl-4-{[4-(4-methoxyphenyl)piperazin-1-yl]acetyl}piperazine], for which the pKi under setting [3] is greater than 6.00.
Still for that read-out and setting: the value for `O=C(CN1CCN(c2cnc(-c3ccc(F)cc3)cn2)CC1)N1CCN(C2CCC2)CC1` [Compound 919, 2-{4-[2-(4-cyclobutylpiperazin-1-yl)-2-oxoethyl]piperazin-1-yl}-5-(4-fluorophenyl)pyrazine] was greater than 6.00.
For the compound `CCC(=O)c1ccc(N2CCN(CC(=O)N3CCN(C4CCCC4)CC3)CC2)cc1` [Compound 324, 1-(4-{4-[2-(4-cyclopentylpiperazin-1-yl)-2-oxoethyl]piperazin-1-yl}phenyl)propan-1-one], the pKi under setting [2] is greater than 6.00.
On to `O=C(CN1CCN(c2cnc(-c3ccccc3)cn2)CC1)N1CCN(C2CCC2)CC1` [Compound 918, 2-{4-[2-(4-cyclobutylpiperazin-1-yl)-2-oxoethyl]piperazin-1-yl}-5-phenylpyrazine], for which the pKi under setting [3] is greater than 6.00.
With `CCC1CCCCN1C(=O)c1ccc(N2CCN(CC(=O)N3CCN(C4CCC4)CC3)CC2)cc1` (stereo not drawn) [Compound 643, 1-cyclobutyl-4-[(4-{4-[(2-ethylpiperidin-1-yl)carbonyl]phenyl}piperazin-1-yl)acetyl]piperazine], the pKi under setting [5] is greater than 6.00.
Still for that read-out and setting: the figure for `CCC1CCCCN1C(=O)c1ccc(N2CCN(CC(=O)N3CCN(C4CCC4)CC3)CC2)nc1` (stereo not drawn) [Compound 650, 1-cyclobutyl-4-[(4-{5-[(2-ethylpiperidin-1-yl)carbonyl]pyridin-2-yl}piperazin-1-yl)acetyl]piperazine] is greater than 6.00.
For the compound `Cc1cc(C)c(-c2ccc(N3CCN(CC(=O)N4CCN(C5CCC5)CC4)CC3)nn2)c(C)c1` [Compound 1061, 3-{4-[2-(4-cyclobutylpiperazin-1-yl)-2-oxoethyl]piperazin-1-yl}-6-mesitylpyridazine], the pKi under setting [1] is greater than 6.00.
Still for that read-out and setting: the figure for `CSc1cccc(-c2ccc(N3CCN(CC(=O)N4CCN(C5CCC5)CC4)CC3)nn2)c1` [Compound 1025, 3-{4-[2-(4-cyclobutylpiperazin-1-yl)-2-oxoethyl]piperazin-1-yl}-6-[3-(methylthio)phenyl] pyridazine] is greater than 6.00.
Same read-out and setting: the value for `O=C(CN1CCN(c2ccc(-c3ccccc3Oc3ccccc3)nn2)CC1)N1CCN(C2CCC2)CC1` [Compound 1047, 3-{4-[2-(4-cyclobutylpiperazin-1-yl)-2-oxoethyl]piperazin-1-yl}-6-(2-phenoxyphenyl) pyridazine] was greater than 6.00.
For `COc1ccc(Cl)cc1N1CCN(CC(=O)N2CCN(C3CCC3)CC2)CC1` [Compound 366, 1-(5-chloro-2-methoxyphenyl)-4-[2-(4-cyclobutylpiperazin-1-yl)-2-oxoethyl]piperazine], under setting [2], the pKi was greater than 6.00.
The same measure, in the same setting: the value for `COc1ccc(CN2Cc3cccnc3C23CCN(CC(=O)N2CCN(C4CCC4)CC2)CC3)c(OC)c1` [Compound 429, 1-[2-(4-cyclobutylpiperazin-1-yl)-2-oxoethyl]-6′-(2,4-dimethoxybenzyl)-5′,6′-dihydrospiro[piperidine-4,7′-pyrrolo[3,4-b]pyridine]] was greater than 6.00.
As to `CCC(C)N1CCN(C(=O)CN2CCN(c3ccc(C)cc3C)CC2)CC1` (stereo not drawn) [Compound 863], the pKi under setting [3] is greater than 6.00.
For the compound `CCNC(=O)c1ccc(N2CCN(CC(=O)N3CCN(C4CCC4)CC3)CC2)cc1` [Compound 1124, 4-{1-[2-(4-cyclobutylpiperazin-1-yl)-2-oxoethyl]piperazin-1-yl}-N-ethylbenzamide], the pKi under setting [1] was greater than 6.00.
Take `O=C(CN1CCN(c2ccc(-c3ccc(F)cc3F)cc2)CC1)N1CCN(C2CCC2)CC1` [Compound 676, 1-cyclobutyl-4-{[4-(2′,4′-difluorobiphenyl-4-yl)piperazin-1-yl]acetyl}piperazine]: the pKi under setting [5] is greater than 6.00.
With `CCC(C)N1CCN(C(=O)CN2CCN(c3ccc(C#N)cc3)CC2)CC1` (stereo not drawn) [Compound 1150, 4-{4-[2-(4-sec-butylpiperazin-1-yl)-2-oxoethyl]piperazin-1-yl}benzonitrile], under setting [4], the pKi is greater than 6.00.
